# Legend:
# Type in all cases: in vivo
# Echinochloa crus-galli [1] = experiment: Glasshouse experiment 2, percentage phytotoxicity after 19 days
# Method: Agricultural surfactant-nonylphenol ethylene oxide condensate containing 9 moles ethylene oxide was added to all spray dilutions to give 0.2% v/v concentration.
# After spraying, the pots were arranged in randomised blocks in a glasshouse, watered as necessary, and assessed after 19 days for percentage phytotoxicity (reduction in green area compared with unsprayed plants) (0 = no effect; 100 = complete destruction).
# The results were then used to plot an isobole with a "one-sided effect" according to the methods of P.M.L. Tammes op.cit.
# maize var. Irla = experiment: Glasshouse experiment 4, percentage phytotoxicity on crop after 11 days; settings: for % crop phytotoxicity Maize (3-4 leaves): Bromoxynil 0 g/ha; for ED₂₀ crop phytotoxicity Maize (3-4 leaves): applied alone
# Method: Agricultural surfactant ('Agral') was added to the spray dilutions to give 0.2%v/v concentration.
# After spraying the pots were arranged in randomised blocks in a glasshouse and water as necessary. After 11 days the plants were assessed for percentage phytotoxicity (reduction in green area compared with unsprayed plants (0 = no effect 100 = complete destruction).
# E = X + Y […] where E, X and Y are percentage phytotoxicity.
# The ED values were then used to plot an isobole for each mixture according to the method of P.M.L. Tammes op cit.
# Eleusine indica = experiment: Glasshouse experiment 3, % inhibition of growth (fresh weight, 19 days)
# Method: (§1) A series of experiments was carried out to determine the nature of the biological interaction between bromoxynil and five compounds of general formula I on a range of weed species. The 3-benzoyl-piperidine-2,4-dione derivatives were compounds 1, 74, 99, 110 and 126. […] The growth stages of the plants at spraying are also presented with the results. Agricultural surfactant (nonyl phenol ethylene oxide condensate containing 9 moles ethylene oxide marketed as 'Agral') was added to all spray dilutions to give 0.2% v/v concentration.
# (§2) After spraying the pots were arranged in randomised blocks in a glasshouse and watered as necessary. After 19 days the fresh weight of vegetation in each pot was determined. The mean fresh weights were used to calculate the percentage inhibition of each species thus [formula]
# (§3) E = X + Y […] where E, X and Y are percentage inhibition of growth.
# (§4) The ED values were then used to plot an isobole for each species according to the method of P.M.L. Tammes op cit. The results of percentage inhibition of growth, the ED values calculated from them and the calculated expected values are given in Tables 1-8.
# Digitaria sanguinalis = experiment: as above; settings: for ED₉₀: 3 leaves; for ED₅₀: 3-4 leaves
# Method: as §1, §2, §3, §4
# Amaranthus retroflexus = experiment: as above; settings: for % inhibition of growth Amaranthus retroflexus 2-4 leaves: Compound 126 0 g/ha; for ED₉₀ Amaranthus retroflexus 2-4 leaves: applied alone
# Method: as §1, §2, §3, §4
# Abutilon theophrasti = experiment: as above; settings: for % inhibition of growth Abutilon theophrasti 1-2 leaves: Compound 126 0 g/ha; for ED₅₀ Abutilon theophrasti 1-2 leaves: applied alone
# Method: as §1, §2, §3, §4
# Solanum nigrum = experiment: as above; settings: 2-3 leaves
# Method: as §1, §2, §3, §4
# Echinochloa crus-galli [2] = experiment: as above; settings: 3 leaves
# Method: as §1, §2, §3, §4
# Chenopodium album = experiment: as above; settings: 2-6 leaves
# Method: as §1, §2, §3, §4
# Brassica kaber = experiment: as above; settings: for % inhibition of growth Brassica kaber 2-3 leaves: Compound 126 0 g/ha; for ED₉₀ Brassica kaber 2-3 leaves: applied alone
# Method: as §1, §2, §3, §4
# [3] = test system: Brachiaria plantaginea (BRAPL); experiment: Field experiment, post-emergence spray, % control of grass weed; settings: 29 days after application
# Method: (§5) The following control figures were recorded on the grass weeds Brachiaria plantaginea (BRAPL), Digitaria horizontalis (DIGHO) and Eleusine indica (ELEIN) 29 days after application.
# [4] = test system: Digitaria horizontalis (DIGHO); experiment: as above; settings: 29 days after application
# Method: as §5
# Eleusine indica (ELEIN) = experiment: as above; settings: 29 days after application
# Method: as §5
# [5] = Bromoxynil alone, 2 leaves, Table 6
# [6] = Bromoxynil alone, 2 leaves, Table 7
# [7] = Bromoxynil alone 2,4,8,16,31 g/ha
# [8] = Amaranthus retroflexus, read-out: % inhibition of growth Amaranthus retroflexus 2-4 leaves
# [9] = Mutarda arvensis, read-out: % inhibition of growth Brassica kaber 2-3 leaves
# [10] = Abutilon theophrasti, read-out: % inhibition of growth Abutilon theophrasti 1-2 leaves
structure (smiles),measurement,setting,value
"O=C1CCNC(=O)C1C(=O)c1ccc(C(F)(F)F)cc1[N+](=O)[O-] (stereo not shown) [Compound 74, 3-(2-nitro-4-trifluoromethylbenzoyl)piperidine-2,4-dione]",ED₉₀,"Echinochloa crus-galli [1]; Compound 74 alone, dose giving 90% phytotoxicity",82 g/ha
same,% crop phytotoxicity Maize (3-4 leaves),maize var. Irla; Compound (74 or 99) 63 g/ha,0%
same,% crop phytotoxicity Maize (3-4 leaves),maize var. Irla; Compound (74 or 99) 125 g/ha,0%
same,% crop phytotoxicity Maize (3-4 leaves),maize var. Irla; Compound (74 or 99) 250 g/ha,3%
same,% crop phytotoxicity Maize (3-4 leaves),maize var. Irla; Compound (74 or 99) 500 g/ha,6%
same,% crop phytotoxicity Maize (3-4 leaves),maize var. Irla; Compound (74 or 99) 1000 g/ha,17%
same,% crop phytotoxicity Maize (3-4 leaves),maize var. Irla; Compound (74 or 99) 2000 g/ha,63%
same,ED₂₀ crop phytotoxicity Maize (3-4 leaves),maize var. Irla,ED₂₀(g/ha) 780
same,ED₉₀,"Eleusine indica; Compound 74 alone, 3 leaves",ED₉₀(g/ha) 260.4
same,ED₉₀,Digitaria sanguinalis; Compound 74 alone,ED₉₀(g/ha) 180.4
same,ED₉₀,"Amaranthus retroflexus; Compound 74 alone, 2 leaves",ED₉₀(g/ha) 22.1
same,ED₉₀,"Abutilon theophrasti; Compound 74 alone, 1-2 leaves",ED₉₀(g/ha) 125.6
same,ED₉₀,Solanum nigrum; Compound 74 alone,ED₉₀(g/ha) 21.45
same,ED₉₀,Echinochloa crus-galli [2]; Compound 74 alone,ED₉₀(g/ha) 168.6
same,ED₉₀,Chenopodium album; Compound 74 alone,ED₉₀(g/ha) 3.67
"CS(=O)(=O)c1ccc(C(=O)C2C(=O)CCNC2=O)c([N+](=O)[O-])c1 (stereo not shown) [Compound 110, 3-(4-methylsulphonyl-2-nitrobenzoyl)piperidine-2,4-dione]",% inhibition of growth,"Amaranthus retroflexus; Compound 110 alone 1,2,4,8,16,31,63 g/ha, 2 leaves",100%
same,ED₉₀,"Amaranthus retroflexus; Compound 110 alone, 2 leaves",ED₉₀(g/ha) 12.6
same,ED₉₀,"Brassica kaber; Compound 110 alone, 2 leaves",ED₉₀(g/ha) 13.6
same,ED₅₀,"Abutilon theophrasti; Compound 110 alone, 1-2 leaves",ED₅₀(g/ha) 22.3
"CC1(C)CC(=O)C(C(=O)c2ccc(C(F)(F)F)cc2[N+](=O)[O-])C(=O)N1 (stereo not shown) [Compound 99, 3-(2-nitro-4-trifluoromethylbenzoyl)-6,6-dimethylpiperidine-2,4-dione]",% crop phytotoxicity Maize (3-4 leaves),maize var. Irla; Compound (74 or 99) 63 g/ha,0%
same,% crop phytotoxicity Maize (3-4 leaves),maize var. Irla; Compound (74 or 99) 125 g/ha,0%
same,% crop phytotoxicity Maize (3-4 leaves),maize var. Irla; Compound (74 or 99) 250 g/ha,0%
same,% crop phytotoxicity Maize (3-4 leaves),maize var. Irla; Compound (74 or 99) 500 g/ha,4%
same,% crop phytotoxicity Maize (3-4 leaves),maize var. Irla; Compound (74 or 99) 1000 g/ha,50%
same,% crop phytotoxicity Maize (3-4 leaves),maize var. Irla; Compound (74 or 99) 2000 g/ha,51%
same,ED₂₀ crop phytotoxicity Maize (3-4 leaves),maize var. Irla,ED₂₀(g/ha) 797
same,ED₉₀,"Amaranthus retroflexus; Compound 99 alone, 2 leaves",ED₉₀(g/ha) 16.8
same,ED₉₀,"Brassica kaber; Compound 99 alone, 2 leaves",ED₉₀(g/ha) 54.9
same,ED₉₀,"Abutilon theophrasti; Compound 99 alone, 1-2 leaves",ED₉₀(g/ha) 23.6
"N#Cc1cc(Br)c(O)c(Br)c1 [Bromoxynil, 3,5-dibromo-4-hydroxybenzonitrile]",activity on Echinochloa crus-galli,Echinochloa crus-galli [1]; applied alone,no activity
same,% control observed,[3]; Bromoxynil 250g/ha,0%
same,% control observed,[4]; Bromoxynil 250g/ha,0%
same,% control observed,Eleusine indica (ELEIN); Bromoxynil 250g/ha,0%
same,ED₉₀,"Eleusine indica; Bromoxynil alone, 3-4 leaves, Table 2",ED₉₀ (g/ha) ∞
same,ED₉₀,"Eleusine indica; Bromoxynil alone, 3 leaves, Table 3",ED₉₀(g/ha) ∞
same,ED₅₀,"Digitaria sanguinalis; Bromoxynil alone, Table 2",ED₅₀ (g/ha) ∞
same,ED₉₀,"Digitaria sanguinalis; Bromoxynil alone, Table 3",ED₉₀(g/ha) ∞
same,ED₉₀,"Amaranthus retroflexus; Bromoxynil alone, 2 leaves, Table 1",ED₉₀(g/ha) 120.3
same,ED₉₀,"Amaranthus retroflexus; Bromoxynil alone, 2 leaves, Table 5",ED₉₀(g/ha) 142.8
same,ED₉₀,Amaranthus retroflexus; [5],ED₉₀(g/ha) 142.9
same,ED₉₀,Amaranthus retroflexus; [6],ED₉₀(g/ha) 246.2
same,% inhibition of growth Amaranthus retroflexus 2-4 leaves,Amaranthus retroflexus; Bromoxynil 18 g/ha,0%
same,% inhibition of growth Amaranthus retroflexus 2-4 leaves,Amaranthus retroflexus; Bromoxynil 35 g/ha,4%
same,% inhibition of growth Amaranthus retroflexus 2-4 leaves,Amaranthus retroflexus; Bromoxynil 70 g/ha,8%
same,% inhibition of growth Amaranthus retroflexus 2-4 leaves,Amaranthus retroflexus; Bromoxynil 140 g/ha,84%
same,% inhibition of growth Amaranthus retroflexus 2-4 leaves,Amaranthus retroflexus; Bromoxynil 280 g/ha,90%
same,ED₉₀ Amaranthus retroflexus 2-4 leaves,Amaranthus retroflexus,ED₉₀(g/ha) 233.3
same,ED₉₀,"Brassica kaber; Bromoxynil alone, 2-3 leaves, Table 1",ED₉₀(g/ha) 67.0
same,ED₉₀,Brassica kaber; [5],ED₉₀(g/ha) 42.7
same,ED₉₀,Brassica kaber; [6],ED₉₀(g/ha) 63.9
same,% inhibition of growth Brassica kaber 2-3 leaves,Brassica kaber; Bromoxynil 18 g/ha,30%
same,% inhibition of growth Brassica kaber 2-3 leaves,Brassica kaber; Bromoxynil 35 g/ha,55%
same,% inhibition of growth Brassica kaber 2-3 leaves,Brassica kaber; Bromoxynil 70 g/ha,82%
same,% inhibition of growth Brassica kaber 2-3 leaves,Brassica kaber; Bromoxynil 140 g/ha,97%
same,% inhibition of growth Brassica kaber 2-3 leaves,Brassica kaber; Bromoxynil 280 g/ha,98%
same,ED₉₀ Brassica kaber 2-3 leaves,Brassica kaber,ED₉₀(g/ha) 102.4
same,ED₉₀,"Abutilon theophrasti; Bromoxynil alone, 1-2 leaves, Table 5",ED₉₀(g/ha) 119.9
same,ED₉₀,"Abutilon theophrasti; Bromoxynil alone, 1-2 leaves, Table 6",ED₉₀(g/ha) 129.6
same,ED₅₀,"Abutilon theophrasti; Bromoxynil alone, 1-2 leaves, Table 7",ED₅₀(g/ha) 78.6
same,ED₅₀,"Abutilon theophrasti; Bromoxynil alone, 3 leaves, Table 1",ED₅₀(g/ha) 106.3
same,% inhibition of growth Abutilon theophrasti 1-2 leaves,Abutilon theophrasti; Bromoxynil 18 g/ha,0%
same,% inhibition of growth Abutilon theophrasti 1-2 leaves,Abutilon theophrasti; Bromoxynil 35 g/ha,13%
same,% inhibition of growth Abutilon theophrasti 1-2 leaves,Abutilon theophrasti; Bromoxynil 70 g/ha,44%
same,% inhibition of growth Abutilon theophrasti 1-2 leaves,Abutilon theophrasti; Bromoxynil 140 g/ha,96%
same,% inhibition of growth Abutilon theophrasti 1-2 leaves,Abutilon theophrasti; Bromoxynil 280 g/ha,99%
same,ED₅₀ Abutilon theophrasti 1-2 leaves,Abutilon theophrasti,ED₅₀(g/ha) 135.7
same,% inhibition of growth,Solanum nigrum; [7],91%
same,ED₉₀,Solanum nigrum; Bromoxynil alone,ED₉₀(g/ha) 21.27
same,ED₉₀,"Echinochloa crus-galli [2]; Bromoxynil alone, Table 3",ED₉₀(g/ha) ∞
same,% inhibition of growth,Chenopodium album; [7],21%
same,ED₉₀,Chenopodium album; Bromoxynil alone,ED₉₀(g/ha) 69.34
"CC1(C)CC(=O)C(C(=O)c2ccc(Cl)cc2[N+](=O)[O-])C(=O)N1 (stereo not shown) [Compound 1, 3-(4-chloro-2-nitrobenzoyl)-6,6-dimethylpiperidine-2,4-dione]",% control observed,[3]; Compound 1 @ 250g/ha,60%
same,% control observed,[3]; Compound 1 @ 500g/ha,80%
same,% control observed,[4]; Compound 1 @ 250g/ha,70%
same,% control observed,[4]; Compound 1 @ 500g/ha,80%
same,% control observed,Eleusine indica (ELEIN); Compound 1 @ 250g/ha,70%
same,% control observed,Eleusine indica (ELEIN); Compound 1 @ 500g/ha,80%
same,ED₉₀,"Eleusine indica; Compound 1 alone, 3-4 leaves",ED₉₀ (g/ha) 66.8
same,ED₅₀,Digitaria sanguinalis; Compound 1 alone,ED₅₀ (g/ha) 21.6
same,ED₉₀,"Amaranthus retroflexus; Compound 1 alone, 2 leaves",ED₉₀(g/ha) 21.6
same,ED₉₀,"Brassica kaber; Compound 1 alone, 2-3 leaves",ED₉₀(g/ha) 58.1
same,ED₅₀,"Abutilon theophrasti; Compound 1 alone, 3 leaves",ED₅₀(g/ha) 21.1
"CS(=O)(=O)c1ccc(C(=O)C2C(=O)CCNC2=O)c(Cl)c1 (stereo not shown) [Compound 126, 3-(2-chloro-4-methylsulphonylbenzoyl)piperidine-2,4-dione]",inhibition at 1 g/ha,Amaranthus retroflexus; [8],0%
same,inhibition at 2 g/ha,Amaranthus retroflexus; [8],50%
same,inhibition at 4 g/ha,Amaranthus retroflexus; [8],91%
same,inhibition at 8 g/ha,Amaranthus retroflexus; [8],91%
same,inhibition at 16 g/ha,Amaranthus retroflexus; [8],99%
same,inhibition at 31 g/ha,Amaranthus retroflexus; [8],100%
same,inhibition at 63 g/ha,Amaranthus retroflexus; [8],100%
same,ED₉₀ Amaranthus retroflexus 2-4 leaves,Amaranthus retroflexus,ED₉₀(g/ha) 7.6
same,inhibition at 1 g/ha,Brassica kaber; [9],0%
same,inhibition at 2 g/ha,Brassica kaber; [9],0%
same,inhibition at 4 g/ha,Brassica kaber; [9],0%
same,inhibition at 8 g/ha,Brassica kaber; [9],17%
same,inhibition at 16 g/ha,Brassica kaber; [9],26%
same,inhibition at 31 g/ha,Brassica kaber; [9],48%
same,inhibition at 63 g/ha,Brassica kaber; [9],80%
same,ED₉₀ Brassica kaber 2-3 leaves,Brassica kaber,ED₉₀(g/ha) 90.6
same,inhibition at 1 g/ha,Abutilon theophrasti; [10],0%
same,inhibition at 2 g/ha,Abutilon theophrasti; [10],38%
same,inhibition at 4 g/ha,Abutilon theophrasti; [10],56%
same,inhibition at 8 g/ha,Abutilon theophrasti; [10],68%
same,inhibition at 16 g/ha,Abutilon theophrasti; [10],88%
same,inhibition at 31 g/ha,Abutilon theophrasti; [10],94%
same,inhibition at 63 g/ha,Abutilon theophrasti; [10],96%
same,ED₅₀ Abutilon theophrasti 1-2 leaves,Abutilon theophrasti,ED₅₀(g/ha) 20.1
